Test results from article PMC2365111, “Cytotoxicity of Poly(Phenolic)Sulfonates and Their Sodium Salts in L1210 Lymphoid Leukemia Cells” (Metal-Based Drugs, 1998).

Key:
mRNA polymerase = target: T1, mRNA polymerase (Mus musculus, UniProt P08775); test: Messenger-RNA polymerase activity, L1210; assay type: biochemical; conditions: 60 min, N=6
T1 construct: Messenger-, ribosomal- and transfer-RNA polymerase enzymes were isolated with different concentrations of ammonium sulfate; endogenous in cells; host or cells: L1210 murine lymphoid leukemia cells, ammonium sulfate fraction
From the text: CYTOTOXlCITY OF POLY(PHENOLIC)SULFONATES AND THEIR SODIUM SALTS IN L1210 LYMPHOID LEUKEMIA CELLS Fei Wang, Amy E. Warren, Cheryl R. Barnes and Iris H. Hall* Division of Medicinal Chemistry and Natural Products University of North Carolina Chapel Hill, N.C. […] Because ofthese properties it was surmised that these poly(phenolic)sulfonated compounds may have antineoplastic activity. METHODS Source of Compounds Test compounds were supplied by GeneLabs, Inc. [Redwood City, CA [Table 1]. Radioisotopes were obtained from New England Nuclear [Dupont, Boston, MA]. Substrates and co-factors were purchased om Sigma Chemical Co., [St Louis, MO]. Pentosan sulfate and other antineoplastic standards were obtained from Sigma Chemical Co. Tumor lines were obtained from American Type Culture Collection [Rockville, MD]. […] Cell numbers were determined by the trypan blue exclusion technique. Solid tumor cytotoxicity was determined by Leibovitz et al. 's method utilizing crystal violeeOH and read at 562 nm (Molecular Devices). Values for cytotoxicity were expressed as EDs0 g/ml, i.e. the concentration ofthe compound inhibiting 50% ofcell growth. […] Incorporation of 4C- formate (53.0 mCi/mmol) into pyrimidines was determined by the method of Christopherson et al.[13]. […] DNA polymerase Ot activity was determined in cytoplasmic extracts isolated by Eichler et aL's method. […] Messenger-, ribosomal- and transfer-RNA polymerase enzymes were isolated with different concentrations of ammonium sulfate; individual RNA polymerase activities were determined using 3H -UTP 16,17]. Ribonucleoside reductase activity was measured using 4C -CDP with dithioerythritol. […]

rRNA polymerase = target: T2, rRNA polymerase (Mus musculus, UniProt O35134); test: Ribosomal-RNA polymerase activity, L1210; assay type: biochemical; conditions: 60 min, N=6
T2 construct: Messenger-, ribosomal- and transfer-RNA polymerase enzymes were isolated with different concentrations of ammonium sulfate; endogenous in cells; host or cells: L1210 murine lymphoid leukemia cells, ammonium sulfate fraction
From the text: (§1) CYTOTOXlCITY OF POLY(PHENOLIC)SULFONATES AND THEIR SODIUM SALTS IN L1210 LYMPHOID LEUKEMIA CELLS Fei Wang, Amy E. Warren, Cheryl R. Barnes and Iris H. Hall* Division of Medicinal Chemistry and Natural Products University of North Carolina Chapel Hill, N.C. […] Because ofthese properties it was surmised that these poly(phenolic)sulfonated compounds may have antineoplastic activity. METHODS Source of Compounds Test compounds were supplied by GeneLabs, Inc. [Redwood City, CA [Table 1]. Radioisotopes were obtained from New England Nuclear [Dupont, Boston, MA]. Substrates and co-factors were purchased om Sigma Chemical Co., [St Louis, MO]. Pentosan sulfate and other antineoplastic standards were obtained from Sigma Chemical Co. Tumor lines were obtained from American Type Culture Collection [Rockville, MD]. 147 Vol. 5, No. 3, 1998 Cytotoxicity ofSodium Poly(Phenolic)Sulfonates in L1210 Lymphoid Leukemia Cells Table 1 Structures of Poly(phenolic)sulfonate Compounds O2R" n Compound R' R" n MW # G1-2041 H OH 8 1489.46 G1-2029 H OH 6 1117.09 G1-2030 H OH 4 744.73 GI-2021 CH3 ONa 8 1777.5 G1-2057 CH3 ONa 4 888.75 GI-2158 CH3 ONa 6 1333.13 GI-2063 OCH3 ONa 8 2001.65 G1-2042 OAc ONa 8 2017.73 Cytotoxicity Poly(phenolic)sulfonates were tested for cytotoxic activity by homogenizing drug in 0.05% Tween 80/H20 to give a mg/ml stock concentration. These solutions were sterilized by passing them through an acrodisc ([…]). The following cell lines were maintained by literature techniques: murine L1210 lymphoid leukemia, P-388 lymphocytic leukemia, rat UMR 106 osteosarcoma, human Tmolt3 acute lymphoblastic T cell leukemia, HUT-8 lymphoma, HeLa-S suspended cervical carcinoma, HeLa solid cervical carcinoma, KB epidermoid nasopharynx, A431 epidermoid carcinoma, colorectal adenocarcinoma SW480, HCT-8 ileocecal adenocarcinoma, lung bronchogenic MB-9812, A549 lung carcinoma, and glioma HS683. Geran et al.'s protocol was used to assess the cytotoxicity of the compounds and standards in each cell line. Cell numbers were determined by the trypan blue exclusion technique. Solid tumor cytotoxicity was determined by Leibovitz et al. 's method utilizing crystal violeeOH and read at 562 nm (Molecular Devices). Values for cytotoxicity were expressed as EDs0 g/ml, i.e. the concentration ofthe compound inhibiting 50% ofcell growth. A value of less than 4 µg/ml was required for significant activity ofgrowth inhibition. Incorporation Studies Incorporation of labeled precursors into 3H-DNA, 3H -RNA and 3H -protein for 10 L1210 cells was obtained. The concentration response for inhibition of DNA, RNA and protein synthesis of the compounds at 25, 50 and 100 l.tM was determined for 60 min incubations. Incorporation of 14C -glycine (53.0 mCi/mmol) into purines was obtained by the method of Cadman et al.[12]. Incorporation of 4C- formate (53.0 mCi/mmol) into pyrimidines was determined by the method of Christopherson et al.[13]. Enzyme Assays Inhibition of various enzyme activities was performed by first preparing the appropriate L1210 cell homogenates or subcellular fractions, then adding the drug to be tested during the enzyme assay. For the concentration response studies, inhibition of enzyme activity was determined at 25, 50 and 100 l.tM of compounds G1-2021, G1-2029, GI-2041 and G1-2063 after 60 min incubations. DNA polymerase Ot activity was determined in cytoplasmic extracts isolated by Eichler et aL's method. The DNA polymerase assay was described by Sedwick et al.[15] using 3H-TTP. Messenger-, ribosomal- and transfer-RNA polymerase enzymes were isolated with different concentrations of ammonium sulfate; individual RNA polymerase activities were determined using 3H -UTP 16,17]. Ribonucleoside reductase activity was measured using 4C -CDP with dithioerythritol. The deoxyribonucleotides 4C -dCDP were separated from the ribonucleotides by TLC on PEI plates. […]

Dihydrofolate reductase = target: T3, Dihydrofolate reductase (Mus musculus, UniProt P00375); test: Dihydrofolate reductase activity, L1210; assay type: biochemical; conditions: for Dihydrofolate reductase: 60 min, N=6
T3 construct: preparing the appropriate L1210 cell homogenates or subcellular fractions; endogenous in cells; host or cells: L1210 murine lymphoid leukemia cells, homogenate or subcellular fraction
T3 sequence (P00375 1-187): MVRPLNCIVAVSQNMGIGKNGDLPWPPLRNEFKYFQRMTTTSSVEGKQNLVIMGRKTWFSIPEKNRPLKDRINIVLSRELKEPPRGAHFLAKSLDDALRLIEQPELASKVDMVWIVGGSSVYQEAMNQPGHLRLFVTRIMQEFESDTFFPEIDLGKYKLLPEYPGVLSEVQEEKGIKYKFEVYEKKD
From the text: as §1

[1] = test system: L1210 de novo purine synthesis; test: 14C-glycine incorporation into purines; assay type: cell-based, mouse; conditions: 60 min, N=6
From the text: as §1

PRPP amido transferase = target: T4, PRPP amido transferase (Mus musculus, UniProt Q8CIH9); test: PRPP amidotransferase activity, L1210; assay type: biochemical; conditions: 60 min, N=6
T4 construct: preparing the appropriate L1210 cell homogenates or subcellular fractions; endogenous in cells; host or cells: L1210 murine lymphoid leukemia cells, homogenate or subcellular fraction
From the text: as §1, with “Enzyme Assays Inhibition of various enzyme activities was performed by first preparing the appropriate L1210 cell homogenates or subcellular fractions, then adding the drug to be tested during the enzyme assay. For the concentration response studies, inhibition of enzyme activity was determined at 25, 50 and 100 l.tM of compounds G1-2021, G1-2029, GI-2041 and G1-2063 after 60 min incubations.” left out, “The DNA polymerase assay was described by Sedwick et al.[15] using 3H-TTP.” left out, “dithioerythritol.” for “dithioerythritol. The deoxyribonucleotides 4C -dCDP were separated from the ribonucleotides by TLC on PEI plates.”

IMP dehydrogenase = IMP dehydrogenase activity, L1210; assay type: biochemical, mouse; conditions: 60 min, N=6
From the text: as §1, with “Enzyme Assays Inhibition of various enzyme activities was performed by first preparing the appropriate L1210 cell homogenates or subcellular fractions, then adding the drug to be tested during the enzyme assay. For the concentration response studies, inhibition of enzyme activity was determined at 25, 50 and 100 l.tM of compounds G1-2021, G1-2029, GI-2041 and G1-2063 after 60 min incubations.” left out, “The DNA polymerase assay was described by Sedwick et al.[15] using 3H-TTP.” left out, “dithioerythritol.” for “dithioerythritol. The deoxyribonucleotides 4C -dCDP were separated from the ribonucleotides by TLC on PEI plates.”

[2] = test system: L1210 de novo pyrimidine synthesis; test: 14C-formate incorporation into pyrimidines; assay type: cell-based, mouse; conditions: 60 min, N=6
From the text: as §1

Thymidylate synthetase = target: T5, Thymidylate synthetase (Mus musculus, UniProt P07607); test: Thymidylate synthetase activity, L1210; assay type: biochemical; conditions: 60 min, N=6
T5 construct: preparing the appropriate L1210 cell homogenates or subcellular fractions; endogenous in cells; host or cells: L1210 murine lymphoid leukemia cells, homogenate or subcellular fraction
From the text: as §1

[3] = target: T6, Thymidine monophosphate kinase (Mus musculus, UniProt P97930); test: TMP kinase activity, L1210; assay type: biochemical; conditions: 60 min, N=6
T6 construct: preparing the appropriate L1210 cell homogenates or subcellular fractions; endogenous in cells; host or cells: L1210 murine lymphoid leukemia cells, homogenate or subcellular fraction
T6 sequence (P97930 1-212): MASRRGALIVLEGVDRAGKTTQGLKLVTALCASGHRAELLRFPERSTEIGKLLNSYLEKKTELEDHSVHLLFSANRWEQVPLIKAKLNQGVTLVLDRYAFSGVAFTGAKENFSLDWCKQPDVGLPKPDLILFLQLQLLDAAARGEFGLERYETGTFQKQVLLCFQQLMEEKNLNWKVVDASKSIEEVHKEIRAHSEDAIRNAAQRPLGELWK
From the text: as §1

L1210 d[NTP] pool levels = test: Deoxyribonucleoside triphosphate pool levels; assay type: cell-based, mouse; conditions: 100 μM, 60 min, N=6
From the text: as §1

T5 sequence (P07607 whole entry): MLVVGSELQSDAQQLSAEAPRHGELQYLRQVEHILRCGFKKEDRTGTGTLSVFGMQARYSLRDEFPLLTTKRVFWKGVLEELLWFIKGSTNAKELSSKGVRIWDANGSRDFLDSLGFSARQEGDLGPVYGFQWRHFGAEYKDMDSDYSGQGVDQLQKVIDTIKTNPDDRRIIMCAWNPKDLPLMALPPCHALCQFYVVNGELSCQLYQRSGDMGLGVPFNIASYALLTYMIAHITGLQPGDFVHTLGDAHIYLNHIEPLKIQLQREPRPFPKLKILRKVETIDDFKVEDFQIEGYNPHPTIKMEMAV
T4 sequence (Q8CIH9 12-517): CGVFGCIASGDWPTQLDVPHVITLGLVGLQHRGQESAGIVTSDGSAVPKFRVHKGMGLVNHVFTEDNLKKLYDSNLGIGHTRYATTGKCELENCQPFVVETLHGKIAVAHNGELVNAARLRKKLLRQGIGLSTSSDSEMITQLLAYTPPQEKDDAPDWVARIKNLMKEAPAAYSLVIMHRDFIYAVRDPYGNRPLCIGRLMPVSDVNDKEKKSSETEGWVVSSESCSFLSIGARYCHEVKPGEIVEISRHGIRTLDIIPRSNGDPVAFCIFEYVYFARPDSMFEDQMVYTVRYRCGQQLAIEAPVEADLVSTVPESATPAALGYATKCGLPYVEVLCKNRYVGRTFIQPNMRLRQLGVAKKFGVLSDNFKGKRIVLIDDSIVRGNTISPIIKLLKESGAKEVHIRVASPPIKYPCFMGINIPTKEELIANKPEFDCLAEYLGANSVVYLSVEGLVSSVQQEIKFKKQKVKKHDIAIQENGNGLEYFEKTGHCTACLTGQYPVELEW

SMILES | rRNA polymerase (rRNA polymerase; 25 μM) | Dihydrofolate reductase (Dihydrofolate reductase; 100 μM) | Purine de novo synthesis ([1]; 25 μM) | Purine de novo synthesis ([1]; 100 μM) | PRPP amido transferase (PRPP amido transferase; 50 μM) | IMP dehydrogenase (IMP dehydrogenase; 25 μM) | Pyrimidine de novo synthesis ([2]; 25 μM) | Thymidylate synthetase (Thymidylate synthetase; 25 μM) | Thymidylate synthetase (Thymidylate synthetase; 50 μM) | Thymidylate synthetase (Thymidylate synthetase; 100 μM) | Thymidine monophosphate kinase ([3]; 25 μM) | d(ATP) (L1210 d[NTP] pool levels) | d(GTP) (L1210 d[NTP] pool levels) | d(TTP) (L1210 d[NTP] pool levels) | other results
O=S(=O)(O)c1cc2c(O)c(c1)Cc1cc(S(=O)(=O)O)cc(c1O)Cc1cc(S(=O)(=O)O)cc(c1O)Cc1cc(S(=O)(=O)O)cc(c1O)Cc1cc(S(=O)(=O)O)cc(c1O)Cc1cc(S(=O)(=O)O)cc(c1O)Cc1cc(S(=O)(=O)O)cc(c1O)Cc1cc(S(=O)(=O)O)cc(c1O)C2 [GI-2041] | 112+5% of Control | 92+5% of Control | 85+5% of Control | 54+3% of Control | 38+3% of Control | 131+6% of Control | 112+6% of Control | 105+5% of Control | 103+6% of Control | 92+5% of Control | 80+5% of Control | 62+ 5% of Control | 74+5% of Control | 89+6% of Control | mRNA polymerase (mRNA polymerase; 100 μM): 47+3% of Control; Dihydrofolate reductase (Dihydrofolate reductase; 25 μM): 105+5% of Control; PRPP amido transferase (PRPP amido transferase; 100 μM): 10+2% of Control; IMP dehydrogenase (IMP dehydrogenase; 100 μM): 70+4% of Control; Pyrimidine de novo synthesis ([2]; 50 μM): 97+5% of Control; Thymidine monophosphate kinase ([3]; 50 μM): 41+3% of Control
COc1c2cc(S(=O)(=O)[O-])cc1Cc1cc(S(=O)(=O)[O-])cc(c1OC)Cc1cc(S(=O)(=O)[O-])cc(c1OC)Cc1cc(S(=O)(=O)[O-])cc(c1OC)Cc1cc(S(=O)(=O)[O-])cc(c1OC)Cc1cc(S(=O)(=O)[O-])cc(c1OC)Cc1cc(S(=O)(=O)[O-])cc(c1OC)Cc1cc(S(=O)(=O)[O-])cc(c1OC)C2.[Na+].[Na+].[Na+].[Na+].[Na+].[Na+].[Na+].[Na+] [GI-2021] | 122+7% of Control | 76+4% of Control | 121+6% of Control | 74+6% of Control | 61+4% of Control | 124+4% of Control | 98+6% of Control | 97+6% of Control | 88+5% of Control | 82+4% of Control | 110+6% of Control | 65+ 4% of Control | 79+4% of Control | 88+6% of Control | mRNA polymerase (mRNA polymerase; 25 μM): 99+5% of Control; rRNA polymerase (rRNA polymerase; 50 μM): 120+5% of Control; rRNA polymerase (rRNA polymerase; 100 μM): 123+4% of Control; dihydrofolate reductase activity reduced (Dihydrofolate reductase; 100 μM after hr): 24%; Purine de novo synthesis ([1]; 50 μM): 118+4% of Control; PRPP amido transferase (PRPP amido transferase; 25 μM): 62+5% of Control; Pyrimidine de novo synthesis ([2]; 100 μM): 88+5% of Control; Thymidine monophosphate kinase ([3]; 100 μM): 32+3% of Control; d(CTP) (L1210 d[NTP] pool levels): 67+5% of Control
